The Kinase Knowledgebase extract (Sharma et al. 2016)

Tests used:
CDK2 (human) [1] = biological target: CDK2 (human) (UniProt P24941); assay: Cell-Based Assay
CDK2 (human) [2] = biological target: CDK2 (human) (UniProt P24941); assay: Enzyme Assay
CDK2 (human) [3] = biological target: CDK2 (human) (UniProt P24941); assay: Cell-Based Assay; settings: rko

Row | Compound | IC50 (CDK2 (human) [2]) [nM] | other results
1 | CNS(=O)(=O)Cc1ccc(NN=C2C(=O)Nc3cc(C)c(O)c(C)c32)cc1 |  | IC50 (CDK2 (human) [1]; mda-mb-468): 300 nM
2 | NS(=O)(=O)c1ccc(N/C=C2\C(=O)Nc3nc(Cl)ccc32)cc1 | 550 | 
3 | CCOC(=O)c1cnc2c(c1)/C(=C/Nc1ccc(S(N)(=O)=O)cc1)C(=O)N2 | 55 | 
4 | CCOC(=O)c1cnc2c(c1)/C(=C/Nc1ccc3cn[nH]c3c1)C(=O)N2 | 55 | 
5 | O=C1Nc2nc(Cl)ccc2/C1=C/Nc1ccc2cn[nH]c2c1 | 550 | 
6 | NS(=O)(=O)c1ccc(N/C=C2\C(=O)Nc3ncc(Br)cc32)cc1 | 55 | 
7 | NS(=O)(=O)c1ccc(N/C=C2\C(=O)Nc3ncc(-c4ccco4)cc32)cc1 | 55 | 
8 | NS(=O)(=O)c1ccc(N/C=C2/C(=O)Nc3ccncc32)cc1.NS(=O)(=O)c1ccc(N/C=C2\C(=O)Nc3ccncc32)cc1 | 55 | 
9 | O=C1Nc2ccc3ccncc3c2/C1=C/Nc1ccc(Cc2ccncc2)cc1 | 30 | 
10 | Cc1cc(=O)[nH]n1-c1ccc(N/C=C2\C(=O)Nc3ccc4ncsc4c32)cc1 | 30 | 
11 | O=C1Nc2ncc(-c3ccsc3)cc2/C1=C/Nc1ccc2cn[nH]c2c1 | 550 | 
12 | O=C1Nc2ccc3ccncc3c2/C1=C/Nc1ccc(N2CCOCC2)cc1 | > 100 | 
13 | O=C1Nc2ncc(-c3ccco3)cc2/C1=C/Nc1ccc2cn[nH]c2c1 | 5500 | 
14 | O=C1Nc2ncc(Br)cc2/C1=C/Nc1ccc2cn[nH]c2c1 | 55 | 
15 | NC(=O)c1ccc(N/C=C2\C(=O)Nc3ccc4ncsc4c32)cc1 | 75 | 
16 | NS(=O)(=O)c1ccc(N/C=C2\C(=O)Nc3ncc(-c4ccccc4)cc32)cc1 | 5500 | 
17 | CCOC(=O)c1cnc2c(c1)/C(=C/Nc1ccc3ncccc3c1)C(=O)N2 | 550 | 
18 | O=C1Nc2ncc(Br)cc2/C1=C/Nc1ccc2ncccc2c1 | 55 | 
19 | O=C1Nc2ccc3ccncc3c2/C1=C/Nc1ccc(CCO)cc1 | 75 | 
20 | NS(=O)(=O)c1ccc(N/C=C2\C(=O)Nc3ncccc32)cc1 | 550 | 
21 | CN(C)S(=O)(=O)c1ccc(N/C=C2\C(=O)Nc3ccc(-c4cnco4)cc32)cc1 |  | IC50 (CDK2 (human) [1]; mda-mb-468): > 5000 nM
22 | NS(=O)(=O)c1ccc(NN=C2C(=O)Nc3ccc(-c4cnco4)cc32)cc1 |  | IC50 (CDK2 (human) [1]; hdf-3): 350 nM; IC50 (CDK2 (human) [1]; mda-mb-468): 350 nM; IC50 (CDK2 (human) [1]; rko): 350 nM; IC50 (CDK2 (human) [3]): 350 nM
23 | NS(=O)(=O)c1ccc(N/C=C2\C(=O)Nc3ncc(-c4ccsc4)cc32)cc1 | 550 | 
24 | NS(=O)(=O)c1ccc(N/C=C2\C(=O)Nc3cnccc32)cc1 | 55 | 
